Results taken from patent publication US20170224679A1, “Use of CXCR2 Antagonists For The Prevention and/or Treatment of Chemotherapy Induced Peripheral Neuropathy (CIPN)” (GlaxoSmithKline Intellectual Property Development Limited, priority 2014, published 2017).

Experiments:
CXCR2 receptor [1] = biological target: T1, CXCR2 receptor (Homo sapiens, UniProt P25025); experiment: CXCR2 Tango assay; assay type: cell-based; parameters: fused on or other part: TEV protease cleavage site and Gal4-VP16 transcription factor fused to the receptor (Invitrogen Tango construct); no part of the key; settings: Tango reporter gene, 80 nM hCXCL1; read-out: pIC50 against the CXCR2 receptor (converted)
T1 sequence (P25025 1-360): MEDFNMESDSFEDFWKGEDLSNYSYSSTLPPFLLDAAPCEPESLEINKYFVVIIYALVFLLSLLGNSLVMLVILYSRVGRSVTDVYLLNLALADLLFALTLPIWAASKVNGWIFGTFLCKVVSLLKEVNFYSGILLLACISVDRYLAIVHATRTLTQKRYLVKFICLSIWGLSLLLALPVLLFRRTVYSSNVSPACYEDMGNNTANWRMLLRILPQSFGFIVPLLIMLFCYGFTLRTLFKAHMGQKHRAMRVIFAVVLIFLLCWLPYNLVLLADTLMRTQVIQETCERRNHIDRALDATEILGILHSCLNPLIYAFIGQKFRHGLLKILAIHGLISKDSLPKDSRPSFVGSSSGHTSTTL
Source text: The assay measures ligand-induced activation of the receptor CXCR2 in a stable cell line containing the recombinant human CXCR2 linked to a TEV protease site and a Gal4-VP16 transcription factor (Invitrogen). Ligand binding to the receptor results in the recruitment of arrestin proteins (tagged with protease) to the receptor and triggers the release of a tethered transcription factor. The transcription factor enters the nucleus and activates the transcription of the reporter gene. The ability of a compound to inhibit CXCR2 activation is indirectly assessed by measuring the reporter gene activity.
A vial of cryopreserved cells was removed from liquid nitrogen and rapidly thawed in a water bath at 37° C. with gentle agitation. The cell contents were collected and resuspended in Assay Medium at a density of ˜200,000 cells/ml. All test compounds were dissolved in DMSO at a concentration of 10 mM and then were serially diluted to generate a 10-point dose response curve into 384-well assay plate (Greiner 781090) using an Echo (Labcyte) concentration-response program (50 nl/well). The cell-free, un-stimulated and positive controls were loaded with 50 nl/well pure DMSO to ensure that the DMSO concentration was constant across the plate for all assays. Using Multi-drop Combi (Thermo) with standard cassette, 50 μl of Assay Medium was added to cell-free control wells in compound-containing assay plate; 50 μl of the cell suspension without hCXCL1 (a CXCR2 ligand) was added to un-stimulated control wells (10,000 cells per well); and 50 μl of the cell suspension with 80 nM hCXCL1 was added to the rest of wells of the assay plate (10,000 cells per well). The cells were incubated overnight at 37° C./5% CO2·10 μl of 6× substrate mixture (LiveBLAzer™-FRET B/G substrate (CCF4-AM) Cat #K1096 from Invitrogen, Inc.) was added to each well using Multi-drop Combi (Thermo) with small-tube cassette and the plate was incubated at room temperature for 2 h in the dark. The plate was then read on EnVision using one excitation channel (409 nm) and two emission channels (460 nm and 530 nm).
The blue/green emission ratio (460 nm/530 nm) was calculated for each well by dividing the background-subtracted Blue emission values by the background-subtracted Green emission values. The dose response curve was based on sigmoidal dose-response model. All ratio data was normalized based upon the maximum emission ratio of positive control (hCXCL1) and minimum emission ratio of negative control (DMSO) on each plate.

CXCR2 receptor [2] = biological target: T1, CXCR2 receptor; experiment: Human whole blood assay version i) (CD11b, CXCL1 stimulated); assay type: cell-based; parameters: Assay d) measures the cellular functional activity to the native expressed human CXCR2 in whole blood; endogenous in cells; host or cells: human whole blood (neutrophils); settings: 10 nM CXCL1, neutrophil CD11b, read-out: pIC50 against the CXCR2 receptor (converted)
Experimental: Human blood was obtained from healthy consenting adults by trained medical professionals by venipuncture in a 10 ml syringe containing 225 μI of 0.25 M EDTA and filling with 7 ml of blood (maintained at 37° C. throughout the CXCL1 stimulation).
The test compounds were dissolved in 100% DMSO to a concentration of 10 mM and diluted to 12× the assay concentration in 1.2% DMSO (final concentration DMSO of 0.1%).
Assay: 100 μI of whole blood was added to assay tubes or 96 well U-bottom clear plates containing 10 μI of 1.2% DMSO (assay concentration of 0.1%) or 10 μI of compound dissolved in 1.2% DMSO (assay concentration range of 0.1 μM to 10 μM), then incubated for 10 minutes at 37° C., followed by addition of 10 μI of 0.1% BSA in DPBS (negative controls) or 10 μI of 120 nM CXCL1 (GROα, Prepro Tech, Inc) dissolved in 0.1% BSA in DPBS (assay concentration of 10 nM which is the EC80 for CXCL1) and incubated at 37° C. for an additional 10 min with gentle agitation before being placed on ice and assay terminated by adding 250 μI of CellFix or 250 μI of 3.7% v/v paraformaldehyde (BD Biosciences). […] Before being analyzed using an LSR flow cytometer (Becton-Dickinson) or FACS Canto II, cells were stained for 10 minutes at 4° C. with 10 μI of LDS-751 (Molecular Probes), a nucleic acid stain, allowing a cytometer threshold setting to exclude red blood cells. […]

CXCR2 receptor [3] = biological target: T1, CXCR2 receptor; experiment: Receptor binding assay ([125I] IL-8 SPA), CXCR2; parameters: expressed in transfected cells; host or cells: CHO cells (membranes)
Experimental: High levels of recombinant human CXCR1 and CXCR2 receptors were individually expressed in Chinese hamster ovary (CHO) cells as described in Holmes, et al., Science, 1991, 253, 1278, incorporated herein to the extent required to perform the present assay. The Chinese hamster ovary membranes were prepared according to Haour, et al., J. Biol. Chem., 249 pp 2195-2205 (1974), incorporated herein to the extent required to perform the present assay, except that the homogenization buffer was changed to 40 mM Tris-HCL pH 7.5 containing 1 mM MgSO4, 0.5 mM EDTA (ethylene-diaminetetra-acetic acid), 1 mM PMSF (α-toluene-sulphonyl fluoride), 2.5 mg/L Leupeptin and 0.1 mg/ml Aprotinin. Membrane protein concentration was determined using Bio-Rad Reagent using bovine serum albumin as a standard. All binding assays were conducted using Scintillation Proximity Assay (SPA assay) using wheatgerm agglutinin beads in a 96-well micro plate (optiplate 96, Packard) format. The CHO-CXCR2 and CHO-CXCR1 membranes were pre-incubated with the beads in binding buffer; 20 mM Bis Tris propane, pH 8 containing 25 mM NaCl, 1 mM MgSO4, 0.1 mM EDTA at 4° C. for 30 min prior to assay. The compound was diluted in 100% DMSO at 20 times the final concentration (final 1 nM to 1000 nM and 5% DMSO). […] At the end of the incubation the plates were spun for 5 min at 2000 RPM, and counted in a Top Count counter.

CXCR2 receptor [4] = biological target: T1, CXCR2 receptor; experiment: GPCR Arrestin Assay (DiscoveRX PathHunter), CXCR2; assay type: cell-based; parameters: host or cells: PathHunter CHO cell lines
Experimental: (§1) Certain compounds of the invention were also tested by DiscoveRX Corporation (42501 Albrae Street, Fremont, Calif. 94538, United States) in their GPCR Arrestin Assay to determine their activity against a panel of receptors including CXCR2 and CXCR1. PathHunter CHO cell lines were expanded from freezer stocks according to standard procedures. Cells were seeded in a total volume of 20 μL into white walled, 384-well microplates and incubated at 37° C. for the appropriate time prior to testing. The cells were pre-incubated with antagonist followed by agonist challenge at the EC80 concentration. Intermediate dilution of sample stocks was performed to generate 5× sample in assay buffer. 5 μL of 5× sample was added to cells and incubated at 37° C. or room temperature for 30 minutes. […] Assay signal was generated through a single addition of 12.5 or 15 μL (50% v/v) of PathHunter Detection reagent cocktail, followed by one hour incubation at room temperature. Microplates were read following signal generation with a PerkinElmer Envision™ instrument for chemiluminescent signal detection. Compound activity was analyzed using CBIS data analysis suite (ChemInnovation, Calif.).

CXCR1 receptor = biological target: T2, CXCR1 receptor (Homo sapiens, UniProt P25024); experiment: GPCR Arrestin Assay (DiscoveRX PathHunter), CXCR1; assay type: cell-based; parameters: host or cells: PathHunter CHO cell lines; settings: PathHunter CHO cells, agonist at EC80; read-out: pIC50 against the CXCR1 receptor (converted)
T2 sequence (P25024 1-350): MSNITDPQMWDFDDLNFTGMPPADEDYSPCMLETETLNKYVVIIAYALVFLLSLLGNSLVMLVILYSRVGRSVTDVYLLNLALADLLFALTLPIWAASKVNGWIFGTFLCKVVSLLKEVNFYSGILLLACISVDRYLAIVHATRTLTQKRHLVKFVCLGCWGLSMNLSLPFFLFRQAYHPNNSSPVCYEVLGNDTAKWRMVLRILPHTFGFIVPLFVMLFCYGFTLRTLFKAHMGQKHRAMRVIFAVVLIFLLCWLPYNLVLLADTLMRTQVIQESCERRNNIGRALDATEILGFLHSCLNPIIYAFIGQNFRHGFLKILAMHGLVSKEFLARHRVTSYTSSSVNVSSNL
Experimental: as §1

Structure (SMILES) | IC50 (CXCR2 receptor [1]) | IC50 (CXCR2 receptor [2]) | IC50 (CXCR2 receptor [3]; [125I] IL-8 binding, CHO-CXCR2 membranes, read-out: pIC50 against the CXCR2 receptor (converted)) | selectivity for CXCR2 over CXCR1 (CXCR2 receptor [3]; receptor binding assay a)) | selectivity for CXCR2 over CXCR1 (CXCR2 receptor [4]; GPCR Arrestin Assay e)) | IC50 (CXCR2 receptor [4]; PathHunter CHO cells, agonist at EC80, read-out: pIC50 against the CXCR2 receptor (converted)) | IC50 (CXCR1 receptor)
O=C(Nc1ccc(Cl)c(S(=O)(=O)N2CCNCC2)c1O)Nc1cccc(F)c1Cl [Compound of Formula (A), 1-(4-chloro-2-hydroxy-3-(piperazin-1-ylsulfonyl)phenyl)-3-(2-chloro-3-fluorophenyl)urea] | 0.631 nM | 2000 nM | 15.8 nM | 188 fold | – | – | –
CN1CCC(C)(S(=O)(=O)c2c(Cl)ccc(NC(=O)Nc3cccc(F)c3Cl)c2O)CC1 [Compound of Formula (D), 1-(4-chloro-3-((1,4-dimethylpiperidin-4-yl)sulfonyl)-2-hydroxyphenyl)-3-(2-chloro-3-fluorophenyl)urea] | 1.26 nM | 3980 nM | – | – | 29 fold | 100 nM | 2510 nM
